Source: paper PMC9011347, “Small-Molecule Inhibitors Targeting Lipolysis in Human Adipocytes” (Journal of the American Chemical Society, 2022)

How the values were obtained:
Type in all cases: biochemical
[1] = target: T1, DDHD domain-containing protein 2 (DDHD2) (Homo sapiens, UniProt O94830); assay: Off-target lipid hydrolase assay, Expi293 lysates, p-NPV substrate; conditions: NG-497 100 µM, substrate pNPV
T1 construct: made in house; host or cells: Expi293 cells, lysate
Description: (§1) Fig. S3: Investigation of off-target effects of NG-497 on structurally and functionally related lipid hydrolases. (a) PNPLA1-dependent formation of acylceramides was monitored in a cell-based assay in HEK293T cells. Experiments were performed in the presence or absence of NG-497 (40 µM) and the non-selective lipase inhibitor Orlistat (40 µM). Orlistat, but not NG-497, inhibited PNPLA1/CGI-58-dependent ω-O-acylceramide formation. (b-h) Enzymes were overexpressed in Expi293 cells and cell lysates were used as source of enzymatic activity. Cell lysates were incubated with the indicated substrates 1-oleoyl phosphatidylcholine (LPC), di-oleoyl phosphatidic acid (PA), di-octanoyl phosphatidylglycerol (PG), or para-nitrophenylvalerate (pNPV). Experiments were performed in the presence or absence of NG-497 (100 µM) and the formation of reaction products was monitored. Cell lysates of LacZ-transfected cells were used to detect basal cellular activity. As positive controls, enzymes were inactivated with lipase inhibitors Orlistat (40 µM), R-BEL (10 µM), KLH-45 (20 nM), HSLi (10 µM), or PMSF (10µM).
(§2) Data were calculated relative to the basal activity detected in LacZ-transfected controls. (i) Activity of purified human pancreatic lipase in the presence or absence of NG-497 (100 µM) and Orlistat (20 µM) using radiolabeled triolein as substrate. (j) Inhibition of LPL and HL by NG-497 (100 µM) was investigated in human post-heparin plasma using radiolabeled triolein as substrate.
(§3) LPL activity was inhibited using an anti-LPL antibody. All data are presented as mean ± S.D. Statistical significance was determined via ANOVA followed by Bonferroni post hoc test ( ***, p < 0.001).
(§4) (1 picture or pasted object on this page, not shown here)
(§5) Co-immunoprecipitation. […]
(§6) Analysis of toxicity in HepG2 hepatocytes. […] Release of LDH into the medium was analyzed using the Cytotoxicity Detection Kit PLUS (LDH) (MilliporeSigma) according to the manufacturer’s instructions. Cytotoxicity was calculated as relative LDH release as compared to fully lysed cells. […]

[2] = target: HSL (Homo sapiens, UniProt Q05469); assay: as above; conditions: NG-497 100 µM, substrate pNPV
Chain of HSL (Q05469 302-1076 limits assumed): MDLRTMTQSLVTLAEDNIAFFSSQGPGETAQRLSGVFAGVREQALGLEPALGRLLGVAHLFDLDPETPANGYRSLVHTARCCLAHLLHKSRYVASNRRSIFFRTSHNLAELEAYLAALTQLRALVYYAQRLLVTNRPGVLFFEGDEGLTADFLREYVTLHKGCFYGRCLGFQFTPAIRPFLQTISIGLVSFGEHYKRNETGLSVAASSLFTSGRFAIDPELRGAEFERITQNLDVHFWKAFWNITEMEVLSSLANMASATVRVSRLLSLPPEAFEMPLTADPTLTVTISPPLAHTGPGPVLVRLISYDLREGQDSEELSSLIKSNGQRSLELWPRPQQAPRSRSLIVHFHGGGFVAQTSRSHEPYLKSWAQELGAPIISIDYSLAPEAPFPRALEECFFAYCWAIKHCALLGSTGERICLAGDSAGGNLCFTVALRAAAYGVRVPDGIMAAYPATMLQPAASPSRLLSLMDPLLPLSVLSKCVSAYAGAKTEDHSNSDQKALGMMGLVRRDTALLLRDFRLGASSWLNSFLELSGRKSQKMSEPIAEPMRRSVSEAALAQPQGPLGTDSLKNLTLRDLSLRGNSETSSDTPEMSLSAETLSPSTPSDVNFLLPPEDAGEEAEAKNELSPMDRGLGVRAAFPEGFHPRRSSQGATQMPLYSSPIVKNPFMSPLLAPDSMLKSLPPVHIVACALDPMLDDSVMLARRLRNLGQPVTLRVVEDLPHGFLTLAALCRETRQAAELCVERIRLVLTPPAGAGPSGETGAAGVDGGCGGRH
Description: as §1, §2, §3, §4, §5, §6

[3] = target: T2, carboxylesterase 2 (CES2) (Homo sapiens, UniProt O00748); assay: as above; conditions: NG-497 100 µM, substrate pNPV
T2 construct: made in house; host or cells: Expi293 cells, lysate
T2 sequence (O00748 27-559): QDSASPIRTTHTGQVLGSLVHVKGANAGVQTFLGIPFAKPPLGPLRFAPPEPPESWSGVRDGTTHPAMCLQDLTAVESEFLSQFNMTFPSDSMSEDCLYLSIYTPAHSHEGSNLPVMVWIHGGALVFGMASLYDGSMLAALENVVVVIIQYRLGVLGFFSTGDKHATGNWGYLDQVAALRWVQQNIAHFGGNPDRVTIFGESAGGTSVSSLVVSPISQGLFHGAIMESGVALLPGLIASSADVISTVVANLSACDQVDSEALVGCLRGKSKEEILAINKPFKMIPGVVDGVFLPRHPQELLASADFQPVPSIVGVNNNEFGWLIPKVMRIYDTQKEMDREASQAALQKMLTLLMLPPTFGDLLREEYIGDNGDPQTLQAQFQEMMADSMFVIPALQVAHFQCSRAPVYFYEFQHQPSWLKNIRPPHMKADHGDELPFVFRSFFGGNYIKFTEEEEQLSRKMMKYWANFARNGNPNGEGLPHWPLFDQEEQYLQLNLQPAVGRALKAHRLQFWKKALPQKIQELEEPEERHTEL
Description: as §1, §2, §3, §4, §5, §6

[4] = target: T3, human pancreatic lipase (Homo sapiens, UniProt P16233); assay: Activity of purified pancreatic lipase, radiolabeled triolein; conditions: NG-497 100 µM
T3 construct: purchased MilliporeSigma SRE0028
T3 sequence (P16233 17-465): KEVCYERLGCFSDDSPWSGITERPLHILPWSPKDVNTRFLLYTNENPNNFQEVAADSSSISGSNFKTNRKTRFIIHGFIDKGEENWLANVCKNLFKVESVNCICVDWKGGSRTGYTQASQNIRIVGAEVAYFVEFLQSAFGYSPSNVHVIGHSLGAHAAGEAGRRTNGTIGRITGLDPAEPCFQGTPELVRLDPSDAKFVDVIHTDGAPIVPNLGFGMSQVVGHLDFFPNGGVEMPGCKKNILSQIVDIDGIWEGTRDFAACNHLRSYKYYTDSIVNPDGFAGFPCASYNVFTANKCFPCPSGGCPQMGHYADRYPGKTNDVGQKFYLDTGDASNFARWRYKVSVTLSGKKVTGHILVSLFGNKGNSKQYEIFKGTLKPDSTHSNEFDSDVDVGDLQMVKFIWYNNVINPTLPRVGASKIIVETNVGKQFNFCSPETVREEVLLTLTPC
Description: Fig. S3: Investigation of off-target effects of NG-497 on structurally and functionally related lipid hydrolases. (a) PNPLA1-dependent formation of acylceramides was monitored in a cell-based assay in HEK293T cells. Experiments were performed in the presence or absence of NG-497 (40 µM) and the non-selective lipase inhibitor Orlistat (40 µM). Orlistat, but not NG-497, inhibited PNPLA1/CGI-58-dependent ω-O-acylceramide formation. (b-h) Enzymes were overexpressed in Expi293 cells and cell lysates were used as source of enzymatic activity. […] Experiments were performed in the presence or absence of NG-497 (100 µM) and the formation of reaction products was monitored. […]
Data were calculated relative to the basal activity detected in LacZ-transfected controls. […]
LPL activity was inhibited using an anti-LPL antibody. All data are presented as mean ± S.D. Statistical significance was determined via ANOVA followed by Bonferroni post hoc test ( ***, p < 0.001). […]
Released free fatty acids were quantified via NEFA C kit (Fujifilm Wako Chemicals, Neuss, Germany) and release of p-nitrophenol was measured at 405 nm. […] Cellular ω-O-acylceramide formation was monitored using [1-14C]linoleic acid as tracer. […] The activity of purified human pancreatic lipase (MilliporeSigma #SRE0028) was determined as previously described7 in the presence or absence of NG-497 (100µM) or Orlistat (20 µM). […]

T1 sequence (O94830 whole entry, the tested form may be a part): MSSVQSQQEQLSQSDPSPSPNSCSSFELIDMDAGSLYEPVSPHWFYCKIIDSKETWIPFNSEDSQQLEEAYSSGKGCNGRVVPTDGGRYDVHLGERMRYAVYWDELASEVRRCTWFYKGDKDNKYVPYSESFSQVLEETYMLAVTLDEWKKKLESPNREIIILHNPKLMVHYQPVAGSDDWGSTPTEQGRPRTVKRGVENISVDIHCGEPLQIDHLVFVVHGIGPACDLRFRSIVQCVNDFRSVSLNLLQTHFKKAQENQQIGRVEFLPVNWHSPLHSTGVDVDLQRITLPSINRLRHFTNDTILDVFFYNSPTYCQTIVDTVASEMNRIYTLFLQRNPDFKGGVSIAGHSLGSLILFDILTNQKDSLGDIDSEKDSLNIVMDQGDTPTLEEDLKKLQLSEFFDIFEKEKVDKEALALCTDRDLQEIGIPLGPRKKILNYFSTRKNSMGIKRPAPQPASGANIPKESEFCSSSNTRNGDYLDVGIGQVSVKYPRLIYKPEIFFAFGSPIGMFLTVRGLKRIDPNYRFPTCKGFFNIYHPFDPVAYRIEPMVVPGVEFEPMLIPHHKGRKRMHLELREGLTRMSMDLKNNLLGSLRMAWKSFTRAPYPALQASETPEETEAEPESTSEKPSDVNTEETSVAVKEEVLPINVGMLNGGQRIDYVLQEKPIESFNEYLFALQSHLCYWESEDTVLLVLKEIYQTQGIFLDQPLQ

CCOc1ccc(-c2cc(OC)cc(C(=O)OC(C)C)n2)cc1 [NG-497]
did not observe inhibition: inhibition of DDHD2 [1] | inhibition of HSL [2] | inhibition of CES2 [3] | inhibition of pancreatic lipase [4]
